Each structure is given as a SMILES string.

In the assay the test system is IL-6 production induced by lipopolysaccharide (LPS) in human corneal epithelial cells. As to the kind of experiment: Evaluation test for GR agonist activity: inhibition of LPS-induced IL-6 production in human corneal epithelial cells (HCE-T). The settings on record: Corneal epithelial cell, 10 μL of 100 μM test compound solution per well, 4 hours incubation, efficacy relative to DEX. The class given is cell-based. The method, then: In order to evaluate a GR agonist activity of the present compound, the inhibitory effects on the IL-6 production induced by lipopolysaccharide (LPS) in human corneal epithelial cells. IL-6 levels in the conditioned medium were measured using the HTRF human IL-6 Kit (boehringer-Ingelheim, Cat No. 62IL6PEB), and the procedure was carried out according to the protocol attached to the kit. Hereinafter, the specific method will be described.
LPS solution: After LPS was dissolved in phosphate buffer solution (hereinafter referred to as PBS(−)), the resulting solution was diluted with 10% FBS-DMEM/F12 medium, whereby a 1 μg/mL LPS solution was prepared.
After a test compound was dissolved in dimethylsulfoxide (hereinafter referred to as DMSO), the resulting solution was diluted with 10% FBS-DMEM/F12 medium, whereby a 100 μM test compound solution was prepared. A 100 μM DEX solution was prepared by the same method, and the inhibitory ratio of IL-6 production of DEX was evaluated to use for calculating efficacy (% DEX).
Used cell: SV40-immortalized human corneal epithelial cells (HCE-T) (RIKEN)
1) HCE-T cells were harvested, and seeded at 2.0×10^4 cells/0.1 mL/well in a 96-well plate.
2) After incubation overnight, the medium was removed and a 80 μL of new 10% FBS-DMEM/Ham's F12 medium was added into each well.
3) A 10 μL of test compounds solution was added into each well.
4) A 10 μL of LPS solution was added into each well.
5) As a negative control, a 10 μL of 10% FBS-DMEM/Ham's F12 medium was added into each well instead of a test compound solution and a LPS solution.
6) As a positive control, a 10 μL of 10% FBS-DMEM/Ham's F12 medium containing 1% DMSO was added into each well instead of a test compound solution.
7) After 4 hours incubation, supernatants were collected and IL-6 levels in the supernatants were quantitated using the HTRF human IL-6 Kit.
8) The inhibition ratio of IL-6 production (%) was calculated according to the following equation.
The inhibition ratio of IL-6 production (%) was calculated according to the following equation. The inhibition ratio of IL-6 production(%)=100×[1−(IL-6 level in each group−mean value of IL-6 level in negative control)/(mean value of IL-6 level in positive control−mean value of IL-6 level in negative control)](%)
Furthermore, the inhibition ratio of IL-6 production (efficacy (% DEX)) was also calculated according to the following equation. Efficacy(% DEX)=100×{(mean value of IL-6 inhibition in compound-treated group)/(mean value of IL-6 inhibition in DEX-treated group)}(%) (Result and Discussion)
The compound `COc1ccccc1NCc1c(-c2ccc(OC(=O)c3cccnc3OC)cc2OC)ccc2c1C(C)=CC(C)(C)N2` [Compound 1-117, 6-[2-Methoxy-4-(2-methoxypyridin-3-ylcarbonyloxy)phenyl]-5-(2-methoxyphenylaminomethyl)-2,2,4-trimethyl-1,2-dihydroquinoline] came in with an Emax of 95%. Compound `COC(=O)c1cccc(C(=O)Oc2ccc(-c3ccc4c(c3CNc3ccccc3OC)C(C)=CC(C)(C)N4)c(OC)c2)c1` [Compound 1-107, 6-[2-Methoxy-4-(3-methoxycarbonylbenzoyloxy)phenyl]-5-(2-methoxyphenylaminomethyl)-2,2,4-trimethyl-l,2-dihydroquinoline] showed an Emax of 85%. On to `COc1cc(OC(=O)c2cccnc2)ccc1-c1ccc2c(c1COC(=O)c1ccc(Br)s1)C(C)=CC(C)(C)N2` [Compound 1-160, 5-(5-Bromothiophen-2-ylcarbonyloxymethyl)-6-[2-methoxy-4-(pyridin-3-ylcarbonyloxy)phenyl]-2,2,4-trimethyl-1,2-dihydroquinoline], for which the Emax was found to be 88%. For `COc1cc(OC(=O)C(C)C)ccc1-c1ccc2c(c1COC(=O)c1ccc(C)s1)C(C)=CC(C)(C)N2` [Compound 1-164, 6-(4-Isopropylcarbonyloxy-2-methoxyphenyl)-5-(5-methylthiophen-2-ylcarbonyloxymethyl)-2,2,4-trimethyl-1,2-dihydroquinoline], the Emax worked out at 85%. Next, `CCCS(=O)(=O)Oc1ccc(-c2ccc3c(c2COc2cc([N+](=O)[O-])ccc2C)C(C)=CC(C)(C)N3)c(OC)c1` [Compound 4-12, 6-(2-Methoxy-4-propylsulfonyloxyphenyl)-5-(2-methyl-5-nitrophenoxymethyl)-2,2,4-trimethyl-1,2-dihydroquinoline]: 77%. With `COc1cc(OC(=O)c2ccco2)ccc1-c1ccc2c(c1CNc1cc(F)ccc1C)C(C)=CC(C)(C)N2` [Compound 1-106, 5-(5-Fluoro-2-methylphenylaminomethyl)-6-[4-(furan-2-ylcarbonyloxy)-2-methoxyphenyl]-2,2,4-trimethyl-1,2-dihydroquinoline], the Emax came out at 82%. `COc1cc(OC(=O)c2ccccc2F)ccc1-c1ccc2c(c1COC(=O)c1ccc(C)s1)C(C)=CC(C)(C)N2` [Compound 1-144, 6-[4-(2-Fluorobenzoyloxy)-2-methoxyphenyl]-5-(5-methylthiophen-2-ylcarbonyloxymethyl)-2,2,4-trimethyl-1,2-dihydroquinoline] yielded an Emax of 94%. Compound `COc1cc(OS(=O)(=O)C2CC2)ccc1-c1ccc2c(c1COC(=O)c1ccc(C)s1)C(C)=CC(C)(C)N2` [Compound 4-34, 6-(4-Cyclopropylsulfonyloxy-2-methoxyphenyl)-5-(5-methylthiophen-2-ylcarbonyloxymethyl)-2,2,4-trimethyl-1,2-dihydroquinoline] had an Emax of 86%. Take `COc1cc(OC(=O)c2ccc(F)cc2)ccc1-c1ccc2c(c1COC(=O)c1ccc(C)s1)C(C)=CC(C)(C)N2` [Compound 1-169, 6-[4-(4-Fluorobenzoyloxy)-2-methoxyphenyl]-5-(5-methylthiophen-2-ylcarbonyloxymethyl)-2,2,4-trimethyl-1,2-dihydroquinoline]: the Emax came out at 78%. The compound `COc1cc(OC(=O)c2ccnc(Cl)c2)ccc1-c1ccc2c(c1COc1cc(F)ccc1C)C(C)=CC(C)(C)N2` [Compound 1-68, 6-[4-(2-Chloropyridin-4-ylcarbonyloxy)-2-methoxyphenyl]-5-(5-fluoro-2-methylphenoxymethyl)-2,2,4-trimethyl-1,2-dihydroquinoline] had an Emax of 72%.

As for `CCS(=O)(=O)Oc1ccc(-c2ccc3c(c2COC(=O)c2ccc(C)s2)C(C)=CC(C)(C)N3)c(OC)c1` [Compound 4-32, 6-(4-Ethylsulfonyloxy-2-methoxyphenyl)-5-(5-methylthiophen-2-ylcarbonyloxymethyl)-2,2,4-trimethyl-1,2-dihydroquinoline], the Emax amounted to 77%. In turn, `COc1ccccc1NCc1c(-c2ccc(OC(=O)c3ccco3)cc2OC)ccc2c1C(C)=CC(C)(C)N2` [Compound 1-3, 6-[4-(Furan-2-ylcarbonyloxy)-2-methoxyphenyl]-5-(2-methoxyphenylaminomethyl)-2,2,4-trimethyl-1,2-dihydroquinoline] had an Emax of 76%. For the compound `COc1ccccc1C(=O)Oc1ccc(-c2ccc3c(c2COc2cc(F)ccc2C)C(C)=CC(C)(C)N3)c(OC)c1` [Compound 1-6, 5-(5-Fluoro-2-methylphenoxymethyl)-6-[2-methoxy-4-(2-methoxybenzoyloxy)phenyl]-2,2,4-trimethyl-1,2-dihydroquinoline], the Emax was 93%.

Compound `COc1cc(OC(=O)c2ccccc2OC(C)=O)ccc1-c1ccc2c(c1COC(=O)c1ccc(C)s1)C(C)=CC(C)(C)N2` [Compound 1-165, 6-[4-(2-Acetoxybenzoyloxy)-2-methoxyphenyl]-5-(5-methylthiophen-2-ylcarbonyloxymethyl)-2,2,4-trimethyl-1,2-dihydroquinoline] came in with an Emax of 93%. In turn, `CCCCS(=O)(=O)Oc1ccc(-c2ccc3c(c2COc2cc(F)ccc2C)C(C)=CC(C)(C)N3)c(OC)c1` [Compound 4-6, 6-(4-Butylsulfonyloxy-2-methoxyphenyl)-5-(5-fluoro-2-methylphenoxymethyl)-2,2,4-trimethyl-1,2-dihydroquinoline] showed an Emax of 82%.

`COc1cc(OC(=O)c2cccnc2C)ccc1-c1ccc2c(c1CNc1cc(F)ccc1C)C(C)=CC(C)(C)N2` [Compound 1-122, 5-(5-Fluoro-2-methylphenylaminomethyl)-6-[2-methoxy-4-(2-methylpyridin-3-ylcarbonyloxy)phenyl]-2,2,4-trimethyl-1,2-dihydroquinoline] had an Emax of 89%.

`COc1ccc([N+](=O)[O-])cc1OCc1c(-c2ccc(OC(=O)c3ccsc3)cc2OC)ccc2c1C(C)=CC(C)(C)N2` [Compound 1-81, 5-(2-Methoxy-5-nitrophenoxymethyl)-6-[2-methoxy-4-(thiophen-3-ylcarbonyloxy)phenyl]-2,2,4-trimethyl-1,2-dihydroquinoline] yielded an Emax of 76%. In the case of `COc1cc(OC(=O)c2ccncc2)ccc1-c1ccc2c(c1COC(=O)c1ccc(C)s1)C(C)=CC(C)(C)N2` [Compound 1-156, 6-[2-Methoxy-4-(pyridin-4-ylcarbonyloxy)phenyl]-5-(5-methylthiophen-2-ylcarbonyloxymethyl)-2,2,4-trimethyl-1,2-dihydroquinoline] it was 90%. For the compound `COc1cc(OC(=O)Nc2ccc(Cl)cc2)ccc1-c1ccc2c(c1COC(=O)c1ccc(C)s1)C(C)=CC(C)(C)N2` [Compound 6-27, 6-[4-(4-Chlorophenylaminocarbonyloxy)-2-methoxyphenyl]-5-(5-methylthiophen-2-ylcarbonyloxymethyl)-2,2,4-trimethyl-1,2-dihydroquinoline], the Emax is 94%.

On to `COc1cc(OS(=O)(=O)C2CCCC2)ccc1-c1ccc2c(c1COC(=O)c1ccc(C)s1)C(C)=CC(C)(C)N2` [Compound 4-30, 6-(4-Cyclopentylsulfonyloxy-2-methoxyphenyl)-5-(5-methylthiophen-2-ylcarbonyloxymethyl)-2,2,4-trimethyl-1,2-dihydroquinoline], for which the Emax is 93%.
